Ends that are not written are not given here. Peptide text beside a SMILES is read from it. * marks the point of attachment. Biotin = O=C1N[C@H]2[C@H](CS[C@H]2CCCCC(=O)*)N1
Legend:
Test in all cases: G' assay (10 uM PL peptide), results of TABLE 7 and TABLE 12
Format in all cases: binding
[1] = biological target: T1, PDZ protein (GST-PDZ fusion) (Homo sapiens, UniProt O75970)
T1 construct: made in house; host or cells: E. coli (DH5alpha, BL21 or JM109)
Procedure, shortened: (§1)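 Biotin-PL peptide (N-term label), 10 uM vs GST-PDZ; protein 5 ug/ml by default. A450 nm binned: 1 = 0-1, 2 = 1-2, 3 = 2-3, 4 = 3-4, 5 = >4 on >2 repeats, 0 = no binding.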

[2] = biological target: T2, PDZ protein (GST-PDZ fusion) (Homo sapiens, UniProt Q86UL8)
T2 construct: made in house; host or cells: E. coli (DH5alpha, BL21 or JM109)
Procedure, shortened: as §1

[3] = biological target: T3, PDZ protein (GST-PDZ fusion) (Homo sapiens, UniProt Q92796); conditions: PDZ NeDLG
T3 construct: made in house; host or cells: E. coli (DH5alpha, BL21 or JM109)
T3 sequence (Q92796 1-817): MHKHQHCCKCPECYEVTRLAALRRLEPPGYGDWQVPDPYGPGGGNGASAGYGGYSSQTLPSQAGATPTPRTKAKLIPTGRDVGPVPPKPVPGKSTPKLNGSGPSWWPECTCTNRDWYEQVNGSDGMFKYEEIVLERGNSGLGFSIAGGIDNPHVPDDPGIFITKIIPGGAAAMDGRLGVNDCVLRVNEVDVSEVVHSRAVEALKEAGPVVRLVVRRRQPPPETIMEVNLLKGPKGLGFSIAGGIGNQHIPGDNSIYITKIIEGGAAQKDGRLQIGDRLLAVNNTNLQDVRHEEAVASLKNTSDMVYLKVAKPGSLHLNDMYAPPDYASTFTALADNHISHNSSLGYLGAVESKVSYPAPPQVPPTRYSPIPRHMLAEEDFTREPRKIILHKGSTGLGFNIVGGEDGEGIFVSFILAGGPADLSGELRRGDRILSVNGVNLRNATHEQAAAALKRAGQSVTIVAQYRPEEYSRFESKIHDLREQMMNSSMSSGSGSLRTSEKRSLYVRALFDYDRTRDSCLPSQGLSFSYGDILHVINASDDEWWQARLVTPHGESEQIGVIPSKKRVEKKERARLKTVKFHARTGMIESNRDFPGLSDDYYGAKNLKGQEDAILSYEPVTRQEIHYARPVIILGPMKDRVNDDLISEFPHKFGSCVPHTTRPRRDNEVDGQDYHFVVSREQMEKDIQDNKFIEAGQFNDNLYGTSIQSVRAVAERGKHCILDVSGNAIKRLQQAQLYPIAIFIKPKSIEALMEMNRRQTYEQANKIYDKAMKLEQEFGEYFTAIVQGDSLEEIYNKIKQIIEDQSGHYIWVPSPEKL
Procedure, shortened: as §1

[4] = biological target: T4, PDZ protein (GST-PDZ fusion) (Homo sapiens, UniProt Q9P202); conditions: PDZ KIAA1526, PDZ Domain 1
T4 construct: made in house; host or cells: E. coli (DH5alpha, BL21 or JM109)
T4 sequence (Q9P202 1-907): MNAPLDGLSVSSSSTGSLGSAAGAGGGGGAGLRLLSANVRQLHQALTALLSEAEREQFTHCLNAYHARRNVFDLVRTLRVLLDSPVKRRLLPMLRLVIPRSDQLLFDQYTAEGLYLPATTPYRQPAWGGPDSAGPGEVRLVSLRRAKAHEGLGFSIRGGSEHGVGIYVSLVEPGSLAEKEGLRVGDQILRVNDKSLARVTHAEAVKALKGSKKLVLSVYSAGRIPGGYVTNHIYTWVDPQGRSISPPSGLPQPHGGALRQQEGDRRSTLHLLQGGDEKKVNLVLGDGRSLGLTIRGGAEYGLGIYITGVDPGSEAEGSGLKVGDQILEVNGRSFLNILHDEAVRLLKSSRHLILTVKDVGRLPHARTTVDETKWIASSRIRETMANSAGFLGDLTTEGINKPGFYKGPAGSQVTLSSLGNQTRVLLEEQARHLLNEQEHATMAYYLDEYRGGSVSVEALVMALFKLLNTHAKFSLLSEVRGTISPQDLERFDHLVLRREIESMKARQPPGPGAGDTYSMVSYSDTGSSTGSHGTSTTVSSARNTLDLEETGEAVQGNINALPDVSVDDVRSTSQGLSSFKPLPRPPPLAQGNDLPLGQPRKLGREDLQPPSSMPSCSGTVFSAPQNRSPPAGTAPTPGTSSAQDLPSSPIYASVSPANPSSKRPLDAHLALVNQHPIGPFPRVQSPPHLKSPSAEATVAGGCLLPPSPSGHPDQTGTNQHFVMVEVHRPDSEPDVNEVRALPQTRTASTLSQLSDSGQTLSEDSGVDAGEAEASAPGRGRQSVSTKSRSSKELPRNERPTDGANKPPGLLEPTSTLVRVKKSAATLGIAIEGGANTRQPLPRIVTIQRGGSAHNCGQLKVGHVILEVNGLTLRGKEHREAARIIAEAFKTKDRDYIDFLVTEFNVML
Procedure, shortened: as §1

[5] = biological target: T5, PDZ protein (GST-PDZ fusion) (Homo sapiens, UniProt Q12923)
T5 construct: made in house; host or cells: E. coli (DH5alpha, BL21 or JM109)
T5 sequence (Q12923 whole entry, the tested form may be a part): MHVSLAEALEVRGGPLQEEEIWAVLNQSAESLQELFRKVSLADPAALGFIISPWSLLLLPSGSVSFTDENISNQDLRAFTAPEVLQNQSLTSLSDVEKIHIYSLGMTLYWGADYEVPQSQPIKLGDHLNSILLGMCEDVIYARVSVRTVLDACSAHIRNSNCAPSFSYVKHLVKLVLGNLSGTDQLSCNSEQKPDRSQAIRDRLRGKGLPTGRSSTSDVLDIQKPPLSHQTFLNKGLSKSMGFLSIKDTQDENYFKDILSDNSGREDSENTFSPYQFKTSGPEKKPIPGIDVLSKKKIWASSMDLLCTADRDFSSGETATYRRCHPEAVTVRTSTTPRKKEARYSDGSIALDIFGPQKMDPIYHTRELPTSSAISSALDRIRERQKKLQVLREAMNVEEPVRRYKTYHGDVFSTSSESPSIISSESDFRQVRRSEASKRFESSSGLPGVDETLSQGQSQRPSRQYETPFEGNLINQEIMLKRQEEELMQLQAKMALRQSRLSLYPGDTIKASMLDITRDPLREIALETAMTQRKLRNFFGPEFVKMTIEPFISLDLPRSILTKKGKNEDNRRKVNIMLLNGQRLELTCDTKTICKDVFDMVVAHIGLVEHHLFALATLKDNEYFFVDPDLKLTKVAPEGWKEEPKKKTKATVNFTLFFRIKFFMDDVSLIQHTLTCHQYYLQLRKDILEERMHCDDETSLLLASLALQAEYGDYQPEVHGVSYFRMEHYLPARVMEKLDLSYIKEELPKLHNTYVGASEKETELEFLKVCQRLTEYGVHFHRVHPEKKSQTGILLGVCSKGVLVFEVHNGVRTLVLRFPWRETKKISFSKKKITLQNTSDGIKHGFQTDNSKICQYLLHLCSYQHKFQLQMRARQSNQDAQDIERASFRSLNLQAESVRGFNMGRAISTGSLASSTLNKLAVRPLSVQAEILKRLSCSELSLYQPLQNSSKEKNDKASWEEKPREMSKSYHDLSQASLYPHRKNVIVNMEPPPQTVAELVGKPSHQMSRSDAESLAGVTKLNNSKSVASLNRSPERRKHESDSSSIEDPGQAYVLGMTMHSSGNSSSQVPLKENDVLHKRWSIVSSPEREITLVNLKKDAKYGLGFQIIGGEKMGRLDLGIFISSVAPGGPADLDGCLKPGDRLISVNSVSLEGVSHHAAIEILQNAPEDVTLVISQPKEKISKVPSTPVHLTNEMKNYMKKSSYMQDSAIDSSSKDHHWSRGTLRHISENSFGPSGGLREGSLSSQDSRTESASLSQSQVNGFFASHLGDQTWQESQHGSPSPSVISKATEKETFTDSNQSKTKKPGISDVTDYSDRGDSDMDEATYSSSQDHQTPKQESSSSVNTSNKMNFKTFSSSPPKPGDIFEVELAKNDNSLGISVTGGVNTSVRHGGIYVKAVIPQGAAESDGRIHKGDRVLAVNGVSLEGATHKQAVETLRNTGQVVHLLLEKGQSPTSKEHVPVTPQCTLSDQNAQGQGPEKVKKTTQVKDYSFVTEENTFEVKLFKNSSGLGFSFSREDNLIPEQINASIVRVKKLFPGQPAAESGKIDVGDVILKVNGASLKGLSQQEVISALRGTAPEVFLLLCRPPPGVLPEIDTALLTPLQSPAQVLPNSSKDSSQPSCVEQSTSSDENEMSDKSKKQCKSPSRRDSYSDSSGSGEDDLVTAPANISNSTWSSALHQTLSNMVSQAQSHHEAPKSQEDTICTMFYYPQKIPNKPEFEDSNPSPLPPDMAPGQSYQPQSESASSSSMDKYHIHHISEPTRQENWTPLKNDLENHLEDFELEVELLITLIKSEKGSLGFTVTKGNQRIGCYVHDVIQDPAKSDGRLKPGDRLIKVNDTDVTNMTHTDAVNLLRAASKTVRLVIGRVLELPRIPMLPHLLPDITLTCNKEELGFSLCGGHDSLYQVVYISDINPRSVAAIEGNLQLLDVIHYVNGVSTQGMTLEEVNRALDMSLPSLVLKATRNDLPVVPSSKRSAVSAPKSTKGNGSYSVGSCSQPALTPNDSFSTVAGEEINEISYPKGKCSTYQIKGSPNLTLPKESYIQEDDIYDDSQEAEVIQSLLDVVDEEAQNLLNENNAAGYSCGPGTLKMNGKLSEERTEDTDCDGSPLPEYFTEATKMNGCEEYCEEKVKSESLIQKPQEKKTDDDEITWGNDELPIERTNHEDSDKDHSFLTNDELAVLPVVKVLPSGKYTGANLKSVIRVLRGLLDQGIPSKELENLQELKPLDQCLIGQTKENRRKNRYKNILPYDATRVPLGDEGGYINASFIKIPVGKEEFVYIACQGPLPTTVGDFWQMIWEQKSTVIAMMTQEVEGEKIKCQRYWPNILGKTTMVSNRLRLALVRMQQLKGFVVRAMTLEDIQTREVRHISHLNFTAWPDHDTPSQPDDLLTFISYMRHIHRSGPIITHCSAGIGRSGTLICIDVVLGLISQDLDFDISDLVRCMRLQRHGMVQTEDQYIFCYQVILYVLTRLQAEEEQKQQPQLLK
Procedure, shortened: as §1

[6] = PDZ Atrophin-1 Inter. Prot., PDZ Domain 5
[7] = PDZ atrophin-1 interacting Protein (Atrophin-1 Inter. Prot.), PDZ Domain 1

T1 sequence (O75970 whole entry, the tested form may be a part): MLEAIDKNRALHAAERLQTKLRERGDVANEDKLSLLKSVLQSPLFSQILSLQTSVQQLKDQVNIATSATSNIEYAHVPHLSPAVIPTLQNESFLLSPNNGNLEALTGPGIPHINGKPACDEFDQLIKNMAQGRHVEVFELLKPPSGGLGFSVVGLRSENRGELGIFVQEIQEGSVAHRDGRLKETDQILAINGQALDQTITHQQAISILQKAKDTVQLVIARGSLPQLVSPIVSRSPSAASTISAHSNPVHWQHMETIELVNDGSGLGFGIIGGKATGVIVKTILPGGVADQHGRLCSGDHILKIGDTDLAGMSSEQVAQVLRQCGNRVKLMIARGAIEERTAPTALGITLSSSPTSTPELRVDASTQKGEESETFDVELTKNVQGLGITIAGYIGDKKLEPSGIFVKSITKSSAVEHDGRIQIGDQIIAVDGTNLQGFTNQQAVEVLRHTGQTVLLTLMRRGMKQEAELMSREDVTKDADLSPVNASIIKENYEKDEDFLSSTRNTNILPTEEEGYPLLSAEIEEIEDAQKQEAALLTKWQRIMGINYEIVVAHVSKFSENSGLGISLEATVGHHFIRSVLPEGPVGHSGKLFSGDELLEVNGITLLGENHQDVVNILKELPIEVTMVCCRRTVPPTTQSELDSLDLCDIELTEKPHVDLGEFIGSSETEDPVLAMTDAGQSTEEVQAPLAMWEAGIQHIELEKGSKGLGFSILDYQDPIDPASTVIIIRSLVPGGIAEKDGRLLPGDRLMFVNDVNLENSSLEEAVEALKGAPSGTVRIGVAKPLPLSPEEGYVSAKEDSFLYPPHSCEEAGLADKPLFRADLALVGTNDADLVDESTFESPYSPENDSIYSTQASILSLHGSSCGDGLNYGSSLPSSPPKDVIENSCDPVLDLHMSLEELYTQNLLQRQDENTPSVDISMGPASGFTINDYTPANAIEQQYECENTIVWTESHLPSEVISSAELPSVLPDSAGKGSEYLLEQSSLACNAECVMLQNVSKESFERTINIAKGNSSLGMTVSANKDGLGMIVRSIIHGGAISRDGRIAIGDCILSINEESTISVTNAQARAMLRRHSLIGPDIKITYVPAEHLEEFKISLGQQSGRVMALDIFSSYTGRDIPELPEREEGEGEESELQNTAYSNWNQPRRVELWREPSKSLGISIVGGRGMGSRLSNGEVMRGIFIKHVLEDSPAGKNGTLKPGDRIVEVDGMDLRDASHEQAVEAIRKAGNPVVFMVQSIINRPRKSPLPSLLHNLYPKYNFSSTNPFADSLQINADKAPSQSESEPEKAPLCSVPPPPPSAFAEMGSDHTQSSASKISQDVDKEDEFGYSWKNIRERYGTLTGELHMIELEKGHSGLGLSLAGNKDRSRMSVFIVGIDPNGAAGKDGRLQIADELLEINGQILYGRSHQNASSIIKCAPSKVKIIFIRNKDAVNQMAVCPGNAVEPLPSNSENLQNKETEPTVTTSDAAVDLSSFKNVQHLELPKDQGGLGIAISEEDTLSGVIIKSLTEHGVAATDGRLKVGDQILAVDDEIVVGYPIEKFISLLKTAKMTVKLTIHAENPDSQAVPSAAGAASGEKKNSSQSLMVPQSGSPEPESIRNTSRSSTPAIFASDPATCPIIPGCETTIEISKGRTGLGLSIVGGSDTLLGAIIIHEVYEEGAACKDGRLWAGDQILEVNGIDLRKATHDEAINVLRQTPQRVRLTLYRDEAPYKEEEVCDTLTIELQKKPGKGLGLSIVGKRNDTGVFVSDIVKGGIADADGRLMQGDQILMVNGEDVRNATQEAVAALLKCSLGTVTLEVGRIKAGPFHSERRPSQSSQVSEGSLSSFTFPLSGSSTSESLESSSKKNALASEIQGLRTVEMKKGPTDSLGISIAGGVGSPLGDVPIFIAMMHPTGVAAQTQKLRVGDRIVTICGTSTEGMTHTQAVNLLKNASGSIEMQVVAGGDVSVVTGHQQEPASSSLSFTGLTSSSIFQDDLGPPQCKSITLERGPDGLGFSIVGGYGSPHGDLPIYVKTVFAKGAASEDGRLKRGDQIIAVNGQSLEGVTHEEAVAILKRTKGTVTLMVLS

Compound	Classification ([1]; PDZ MUPP-1, PDZ Domain 13)	Classification [2, 6]	Classification ([3]; PDZ Domain 3)	Classification [4]	Classification ([5]; PDZ PTPL-1, PDZ Domain 2)	also measured
CC(C)C[C@H](NC(=O)[C@H](C)NC(=O)[C@@H](NC(=O)[C@H](CCC(=O)O)NC(=O)[C@H](CCCNC(=N)N)NC(=O)[C@H](CCCNC(=N)N)NC(=O)CNC(=O)[C@H](CCC(N)=O)NC(=O)[C@H](CC(C)C)NC(=O)[C@H](CCCNC(=N)N)NC(=O)CNC(=O)CNC(=O)[C@H](CCCNC(=N)N)NC(=O)[C@H](C)NC(=O)[C@H](CO)NC(=O)[C@H](CCCNC(=N)N)NC(=O)CNC(=O)CNC(=O)[C@H](C)NC(=O)[C@H](C)NC(=O)CCCC[C@@H]1SC[C@@H]2NC(=O)N[C@@H]21)[C@@H](C)O)C(=O)O [HPV E6 33 (modified)] (Biotin-AAGGRSARGGRLQGRRETAL-OH; C-terminus assumed)	2 (A450 nm 1-2)	1 (A450 nm 0-1)	1 (A450 nm 0-1)	1 (A450 nm 0-1)	–	Classification [2, 7]: 4 (A450 nm 3-4); Classification ([3]; PDZ Domain 1): 1 (A450 nm 0-1); Classification ([3]; PDZ Domain 1, 2): 5 (A450 nm of 4 more than 2× repeated); Classification ([3]; PDZ Domain 2): 2 (A450 nm 1-2)
VHDAESSDEDGYDWGPATDL (Biotin-VHDAESSDEDGYDWGPATDL) [zona occludens 3 (ZO-3)]	2 (A450 nm 1-2)	–	–	1 (A450 nm 0-1)	2 (A450 nm 1-2)	Classification ([1]; PDZ MUPP-1, PDZ Domain 7): 1 (A450 nm 0-1); Classification ([1]; PDZ MUPP-1, PDZ Domain 9): 1 (A450 nm 0-1)
CC(C)C[C@H](NC(=O)[C@H](CC(=O)O)NC(=O)[C@H](CO)NC(=O)[C@H](CCC(=O)O)NC(=O)CNC(=O)[C@H](Cc1ccc(O)cc1)NC(=O)[C@H](CC(C)C)NC(=O)[C@H](C)NC(=O)[C@H](CO)NC(=O)[C@H](CO)NC(=O)[C@H](Cc1ccccc1)NC(=O)[C@H](C)NC(=O)[C@H](C)NC(=O)[C@H](Cc1ccc(O)cc1)NC(=O)[C@H](CC(=O)O)NC(=O)[C@H](CC(C)C)NC(=O)[C@H](C)NC(=O)CNC(=O)[C@@H]1CCCN1C(=O)[C@@H](NC(=O)CCCC[C@@H]1SC[C@@H]2NC(=O)N[C@@H]21)C(C)C)C(=O)O [a-actinin 2] (Biotin-VPGALDYAAFSSALYGESDL-OH; C-terminus assumed)	–	5 (A450 nm of 4 more than 2× repeated)	–	1 (A450 nm 0-1)	1 (A450 nm 0-1)	–
CC(C)C[C@H](NC(=O)[C@H](CCCNC(=N)N)NC(=O)CNC(=O)CNC(=O)[C@H](CCCNC(=N)N)NC(=O)[C@H](C)NC(=O)[C@@H]1CCCN1C(=O)[C@H](CCCNC(=N)N)NC(=O)CNC(=O)CNC(=O)[C@@H](NC(=O)[C@H](C)NC(=O)CCCC[C@@H]1SC[C@@H]2NC(=O)N[C@@H]21)C(C)C)C(=O)N[C@@H](CCC(N)=O)C(=O)NCC(=O)N[C@@H](CCCNC(=N)N)C(=O)N[C@@H](CCCNC(=N)N)C(=O)N[C@@H](CCC(N)=O)C(=O)N[C@H](C(=O)N[C@@H](CCC(N)=O)C(=O)N[C@H](C(=O)O)C(C)C)[C@@H](C)O [HPV E6 58 (modified)] (Biotin-AVGGRPARGGRLQGRRQTQV-OH; C-terminus assumed)	1 (A450 nm 0-1)	–	2 (A450 nm 1-2)	1 (A450 nm 0-1)	–	Classification ([1]; PDZ MUPP-1, PDZ Domain 10): 3 (A450 nm 2-3); Classification [2, 7]: 5 (A450 nm of 4 more than 2× repeated); Classification ([3]; PDZ Domain 1): 1 (A450 nm 0-1); Classification ([3]; PDZ Domain 1, 2): 5 (A450 nm of 4 more than 2× repeated); Classification ([3]; PDZ Domain 2): 5 (A450 nm of 4 more than 2× repeated)
LNETTETQRTLLNGDLQTSI (Biotin-LNETTETQRTLLNGDLQTSI) [SSTR2 (somatostatin recepor 2)]	–	–	–	1 (A450 nm 0-1)	–	–
CC(C)C[C@H](NC(=O)[C@H](C)NC(=O)[C@@H](NC(=O)[C@@H](NC(=O)[C@H](Cc1c[nH]cn1)NC(=O)[C@H](CC(C)C)NC(=O)CNC(=O)[C@H](CCC(N)=O)NC(=O)CNC(=O)CNC(=O)[C@H](C)NC(=O)[C@H](C)NC(=O)[C@H](CCCNC(=N)N)NC(=O)[C@H](C)NC(=O)[C@H](CO)NC(=O)[C@H](CC(=O)O)NC(=O)[C@H](CC(=O)O)NC(=O)[C@H](Cc1c[nH]c2ccccc12)NC(=O)[C@H](C)NC(=O)CCCC[C@@H]1SC[C@@H]2NC(=O)N[C@@H]21)C(C)C)[C@@H](C)O)C(=O)O [LPAP] (Biotin-AWDDSARAAGGQGLHVTAL-OH; C-terminus assumed)	–	2 (A450 nm 1-2)	–	1 (A450 nm 0-1)	1 (A450 nm 0-1)	–
PPATPSPRLALPAHHNATRL (Biotin-PPATPSPRLALPAHHNATRL) [Na+/Pi cotransporter 2]	1 (A450 nm 0-1)	–	–	1 (A450 nm 0-1)	–	Classification ([1]; PDZ MUPP-1, PDZ Domain 10): 1 (A450 nm 0-1)
PYSELNYETSHYPASPDSWV (Biotin-PYSELNYETSHYPASPDSWV) [catenin - delta 2]	–	5 (A450 nm of 4 more than 2× repeated)	1 (A450 nm 0-1)	2 (A450 nm 1-2)	5 (A450 nm of 4 more than 2× repeated)	Classification ([5]; PDZ PTPL-1, PDZ Domain 4): 1 (A450 nm 0-1); Classification ([2]; PDZ atrophin-1 interacting Protein, PDZ Domain 3): 1 (A450 nm 0-1)
CC[C@H](C)[C@H](NC(=O)CNC(=O)[C@H](CO)NC(=O)[C@H](Cc1ccccc1)NC(=O)[C@@H](NC(=O)[C@H](CS)NC(=O)CNC(=O)CNC(=O)[C@H](C)NC(=O)[C@@H]1CCCN1C(=O)[C@@H](NC(=O)[C@@H]1CCCN1C(=O)CCCC[C@@H]1SC[C@@H]2NC(=O)N[C@@H]21)[C@@H](C)CC)[C@@H](C)O)C(=O)N[C@@H](Cc1ccccc1)C(=O)N1CCC[C@H]1C(=O)N[C@H](C(=O)N[C@@H](CC(C)C)C(=O)N[C@H](C(=O)N[C@@H](CO)C(=O)N1CCC[C@H]1C(=O)N[C@@H](CC(C)C)C(=O)O)[C@@H](C)O)[C@@H](C)O [KIA 1481] (Biotin-PIPAGGCTFSGIFPTLTSPL-OH; C-terminus assumed)	–	–	–	2 (A450 nm 1-2)	–	–
A2AA_HUMAN (modified) (Biotin-HDFRRAFKKILARGDRKRIV; not fully specified)	1 (A450 nm 0-1)	1 (A450 nm 0-1)	–	4 (A450 nm 3-4)	2 (A450 nm 1-2)	Classification ([1]; PDZ MUPP-1, PDZ Domain 6): 2 (A450 nm 1-2); Classification ([1]; PDZ MUPP-1, PDZ Domain 8): 1 (A450 nm 0-1); Classification ([2]; PDZ Atrophin-1 Inter. Prot., PDZ Domain 6): 1 (A450 nm 0-1)
